Reference: ChEMBL document CHEMBL3734677, “EVALUATION OF AROMATIC 6-SUBSTITUTED THIENOPYRIMIDINES AS SCAFFOLDS AGAINST PARASITES THAT CAUSE TRYPANOSOMIASIS, LEISHMANIASIS, AND MALARIA” (Medchemcomm, 2015)

Experiments:
[1] = system: Leishmania major; assay: Antiparasitic activity against Leishmania major promastigotes; assay type: functional, organism-based
[2] = system: Leishmania major; assay: Antiparasitic activity against Leishmania major amastigotes; assay type: functional, organism-based
[3] = system: Trypanosoma brucei; assay: Antiparasitic activity against Trypanosoma brucei after 48 hrs by cytometry; assay type: functional, organism-based
[4] = system: Plasmodium falciparum; assay: Antiparasitic activity against Plasmodium falciparum D6; assay type: functional, organism-based
[5] = system: Trypanosoma cruzi; assay: Antiparasitic activity against Trypanosoma cruzi; assay type: functional, organism-based
[6] = system: HepG2; assay: (§1) Cytotoxicity against human HepG2 cells by MTT assay; assay type: cell-based; conditions: hepg2
[7] = system: Trypanosoma cruzi; assay: Antiparasitic activity against Trypanosoma cruzi at 10 uM; assay type: functional
[8] = as §1; assay type: cell-based; conditions: HepG2 cells, read-out: TC50 (the source's name)
[9] = system: Trypanosoma brucei; assay: Antiparasitic activity against Trypanosoma brucei at 5 uM after 48 hrs by cytometry; assay type: functional
[10] = Selectivity ratio, ratio of EC50 for Plasmodium falciparum W2 to EC50 for Plasmodium falciparum D6; assay type: functional
[11] = Selectivity ratio, ratio of EC50 for Plasmodium falciparum C235 to EC50 for Plasmodium falciparum D6; assay type: functional
[12] = Metabolic stability in human microsomes; assay type: ADME, Microsome
[13] = Metabolic stability in rat Hepatocytes; assay type: ADME, cell-based, Hepatocyte
[14] = Plasma protein binding in human; assay type: ADME, cell-free
[15] = Aqueous solubility of compound; assay type: physicochemical; conditions: buffer
[16] = Leishmania major, read-out: EC50
[17] = Plasmodium falciparum, D6, read-out: EC50

Row | Compound | EC50 [1, 16] [µM] | EC50 [2, 16] [µM] | EC50 [3] [µM] | EC50 [4, 17] [µM] | EC50 [5] [µM] | Activity [6] | inhibition at 10 µM [7] [%] | CC50 [8] [µM] | inhibition at 5 µM [9] [%] | Ratio EC50 [10] | Ratio EC50 [11] | EC50 [1] | EC50 [2] | EC50 [4] | Stability [12] | Stability [13] | PPB [14] [%] | solubility [15] [µM]
1 | CC(C)(C)NS(=O)(=O)c1ccccc1-c1cc2ncnc(Nc3ccc(OCc4cccc(F)c4)c(Cl)c3)c2s1 | > 20 | 2.37 | 1.2 | 1.07 | 0.67 | Non-toxic | – | – | – | – | – | – | – | – | – | – | – | –
2 | Fc1cccc(COc2ccc(Nc3ncnc4sc(-c5ccccc5)cc34)cc2Cl)c1 | > 20 | > 15 | 1.7 | > 20 | – | – | 42 | 10 | – | – | – | – | – | – | – | – | – | –
3 | Fc1cccc(COc2ccc(Nc3ncnc4sc(-c5cc6ccccc6s5)cc34)cc2Cl)c1 | > 3 | > 3 | 2.9 | > 4 | – | Non-toxic | 49 | – | – | – | – | – | – | – | – | – | – | –
4 | Fc1cccc(COc2ccc(Nc3ncnc4ccsc34)cc2Cl)c1 | 5.68 | > 15 | – | 16.4 | 27 | Non-toxic | – | – | 1 | – | – | – | – | – | – | – | – | –
5 | O=C(c1cccc(-c2cc3c(Nc4ccc(OCc5cccc(F)c5)c(Cl)c4)ncnc3s2)c1)N1CCCCC1 | > 20 | > 15 | 0.33 | 2.11 | > 50 | Non-toxic | – | – | – | – | – | – | – | – | – | – | – | –
6 | O=C(c1cccc(-c2ccc3ncnc(Nc4ccc(OCc5cccc(F)c5)c(Cl)c4)c3c2)c1)N1CCCCC1 | > 3 | > 15 | – | 0.51 | > 50 | Non-toxic | – | – | – | – | – | – | – | – | – | – | – | –
7 | Fc1cccc(COc2ccc(Nc3ncnc4ccccc34)cc2Cl)c1 | 1.75 | 12.4 | 1.3 | 5.33 | 2.4 | Non-toxic | – | – | – | – | – | – | – | – | – | – | – | –
8 | Fc1cccc(COc2ccc(Nc3ncnc4sc(-c5ccccc5Oc5ccccc5)cc34)cc2Cl)c1 | > 20 | > 15 | 1.2 | 10.8 | – | Non-toxic | 45 | – | – | – | – | – | – | – | – | – | – | –
9 | Cc1cc(-c2cc3c(Nc4ccc(OCc5cccc(F)c5)c(Cl)c4)ncnc3s2)cnc1N1CCOCC1 | > 3 | > 3 | 0.42 | 0.28 | – | Non-toxic | 29 | – | – | < 3 | < 3 | – | – | – | – | – | – | –
10 | Oc1ccc(-c2cc3ncnc(Nc4ccc(OCc5cccc(F)c5)c(Cl)c4)c3s2)cc1 | > 20 | 1.58 | 2.2 | 0.44 | 0.75 | Non-toxic | – | – | – | – | – | – | – | – | – | – | – | –
11 | Fc1cccc(COc2ccc(Nc3ncnc4ccc(-c5ccc(N6CCOCC6)cc5)cc34)cc2Cl)c1 | 4.4 | > 15 | 1.9 | 0.27 | – | – | 10.1 | 9.6 | – | – | – | – | – | – | – | – | – | –
12 | CC(C)(C)NS(=O)(=O)c1ccccc1-c1ccc2ncnc(Nc3ccc(OCc4cccc(F)c4)c(Cl)c3)c2c1 | – | – | 4.7 | – | 6.4 | Non-toxic | – | – | – | – | – | ND(Insoluble) | ND(Insoluble) | ND(Insoluble) | – | – | – | –
13 | CC(C)(C)OCc1ccc(-c2ccc3ncnc(Nc4ccc(OCc5cccc(F)c5)c(Cl)c4)c3c2)cc1 | > 20 | 4.09 | 0.22 | 0.6 | 2.2 | Non-toxic | – | – | – | – | – | – | – | – | – | – | – | –
14 | Fc1cccc(COc2ccc(Nc3ncnc4ccc(-c5cc6ccccc6s5)cc34)cc2Cl)c1 | > 20 | > 15 | 6 | 0.91 | > 50 | Non-toxic | – | – | – | – | – | – | – | – | – | – | – | –
15 | O=C(c1cccc(-c2cc3ncnc(Nc4ccc(OCc5cccc(F)c5)c(Cl)c4)c3s2)c1)N1CCCCC1 | > 20 | 3.1 | – | 1.17 | 3.2 | Non-toxic | – | – | 46 | – | – | – | – | – | – | – | – | –
16 | Fc1cccc(COc2ccc(Nc3ncnc4ccc(-c5cccc(N6CCOCC6)c5)cc34)cc2Cl)c1 | – | 7.98 | – | – | – | Non-toxic | – | – | – | – | – | – | – | – | Stable | Stable | > 99 | < 1
17 | Fc1cccc(COc2ccc(Nc3ncnc4cc(-c5cccc(N6CCOCC6)c5)sc34)cc2Cl)c1 | > 20 | 5.4 | – | 0.86 | > 50 | Non-toxic | – | – | 42 | – | – | – | – | – | – | – | – | –
18 | Fc1cccc(COc2ccc(Nc3ncnc4ccc(-c5ccccc5Oc5ccccc5)cc34)cc2Cl)c1 | 6.86 | > 15 | – | 5.79 | – | Non-toxic | – | – | – | – | – | – | – | – | – | – | – | –
19 | Fc1cccc(COc2ccc(Nc3ncnc4ccc(-c5ccccc5)cc34)cc2Cl)c1 | 4.05 | > 15 | 3.9 | 0.79 | 1.8 | – | – | 4.9 | – | – | – | – | – | – | – | – | – | –

Row | Compound | EC50 [1, 16] [µM] | EC50 [2, 16] [µM] | EC50 [3] [µM] | EC50 [4, 17] [µM] | EC50 [5] [µM] | Activity [6] | inhibition at 10 µM [7] [%] | CC50 [8] [µM] | inhibition at 5 µM [9] [%] | Ratio EC50 [10] | Ratio EC50 [11] | EC50 [1] | EC50 [2] | EC50 [4] | Stability [12] | Stability [13] | PPB [14] [%] | solubility [15] [µM]
20 | Cc1cc(-c2ccc3ncnc(Nc4ccc(OCc5cccc(F)c5)c(Cl)c4)c3c2)cnc1N1CCOCC1 | > 20 | 1.14 | 1 | 0.26 | – | Non-toxic | 49 | – | – | < 3 | < 3 | – | – | – | – | – | – | –
21 | CS(=O)(=O)c1cccc(-c2ccc3ncnc(Nc4ccc(OCc5cccc(F)c5)c(Cl)c4)c3c2)c1 | 3.49 | 4.67 | 3.2 | 0.52 | 5 | Non-toxic | – | – | – | < 3 | < 3 | – | – | – | – | – | – | –
22 | Oc1ccc(-c2ccc3ncnc(Nc4ccc(OCc5cccc(F)c5)c(Cl)c4)c3c2)cc1 | > 20 | > 15 | 6.5 | > 20 | > 50 | Non-toxic | – | – | – | – | – | – | – | – | – | – | – | –
23 | Fc1cccc(COc2ccc(Nc3ncnc4cc(-c5ccccc5Oc5ccccc5)sc34)cc2Cl)c1 | > 20 | 3.5 | – | 6.21 | > 50 | Non-toxic | – | – | 10 | – | – | – | – | – | – | – | – | –
24 | Fc1cccc(COc2ccc(Nc3ncnc4sc(-c5ccc(CN6CCOCC6)cc5)cc34)cc2Cl)c1 | > 20 | 4.2 | – | 0.089 | 1.7 | Non-toxic | – | – | 60 | < 3 | < 3 | – | – | – | – | – | – | –
25 | Cc1cc(-c2cc3ncnc(Nc4ccc(OCc5cccc(F)c5)c(Cl)c4)c3s2)cnc1N1CCOCC1 | > 3 | > 3 | 0.084 | 0.23 | 3.3 | Non-toxic | – | – | – | < 3 | < 3 | – | – | – | Stable | Stable | > 99 | < 1
26 | CC(C)(C)OCc1ccc(-c2cc3c(Nc4ccc(OCc5cccc(F)c5)c(Cl)c4)ncnc3s2)cc1 | > 20 | 2.03 | 1.6 | 7.79 | – | Non-toxic | 17 | – | – | – | – | – | – | – | – | – | – | –
27 | Fc1cccc(COc2ccc(Nc3ncnc4sc(-c5cccc(N6CCOCC6)c5)cc34)cc2Cl)c1 | > 20 | 2.6 | 0.4 | 0.52 | 2.2 | Non-toxic | – | – | – | – | – | – | – | – | – | – | – | –
28 | CC(C)(C)NS(=O)(=O)c1ccccc1-c1cc2c(Nc3ccc(OCc4cccc(F)c4)c(Cl)c3)ncnc2s1 | > 20 | > 15 | 0.5 | > 15 | > 50 | Non-toxic | – | – | – | – | – | – | – | – | – | – | – | –
29 | Fc1cccc(COc2ccc(Nc3ncnc4cc(-c5ccccc5)sc34)cc2Cl)c1 | 8.14 | > 15 | 2.8 | 2.97 | – | Non-toxic | 0 | – | – | – | – | – | – | – | – | – | – | –
30 | CS(=O)(=O)c1cccc(-c2cc3c(Nc4ccc(OCc5cccc(F)c5)c(Cl)c4)ncnc3s2)c1 | 11.8 | > 15 | 1.3 | 0.52 | 2.4 | Non-toxic | – | – | – | < 3 | < 3 | – | – | – | – | – | – | –
31 | Fc1cccc(COc2ccc(Nc3ncnc4ccc(-c5ccc(CN6CCOCC6)cc5)cc34)cc2Cl)c1 | 2.74 | 5.91 | 1 | 0.063 | 0.6 | – | – | 12.9 | – | < 3 | < 3 | – | – | – | – | – | – | –
32 | Fc1cccc(COc2ccc(Nc3ncnc4cc(-c5cc6ccccc6s5)sc34)cc2Cl)c1 | > 20 | > 15 | – | > 15 | > 50 | Non-toxic | – | – | 8 | – | – | – | – | – | – | – | – | –
33 | CS(=O)(=O)c1cccc(-c2cc3ncnc(Nc4ccc(OCc5cccc(F)c5)c(Cl)c4)c3s2)c1 | > 3 | > 3 | 1.4 | 0.65 | 2.7 | Non-toxic | – | – | – | < 3 | < 3 | – | – | – | – | – | – | –
34 | CS(=O)(=O)CCNCc1ccc(-c2ccc3ncnc(Nc4ccc(OCc5cccc(F)c5)c(Cl)c4)c3c2)o1 [LAPATINIB] | – | – | – | – | – | – | – | > 35 | – | – | – | – | – | – | – | – | – | –
35 | Fc1cccc(COc2ccc(Nc3ncnc4cc(-c5ccc(CN6CCOCC6)cc5)sc34)cc2Cl)c1 | 0.22 | > 15 | 1.1 | 0.027 | > 50 | Non-toxic | – | – | – | – | < 3 | – | – | – | – | – | – | –
36 | Fc1cccc(COc2ccc(Nc3ncnc4cc(-c5ccc(N6CCOCC6)cc5)sc34)cc2Cl)c1 | > 20 | > 15 | 0.47 | 3.1 | – | Non-toxic | 0 | – | – | – | – | – | – | – | – | – | – | –
37 | CC(C)(C)OCc1ccc(-c2cc3ncnc(Nc4ccc(OCc5cccc(F)c5)c(Cl)c4)c3s2)cc1 | > 20 | > 15 | 0.89 | 1.65 | 30 | Non-toxic | – | – | – | – | – | – | – | – | – | – | – | –
